Experiment [1] addresses T1, human AT-1 receptors (Homo sapiens, UniProt P30556).
T1 construct: expressed in transfected cells
T1 sequence (P30556 1-359): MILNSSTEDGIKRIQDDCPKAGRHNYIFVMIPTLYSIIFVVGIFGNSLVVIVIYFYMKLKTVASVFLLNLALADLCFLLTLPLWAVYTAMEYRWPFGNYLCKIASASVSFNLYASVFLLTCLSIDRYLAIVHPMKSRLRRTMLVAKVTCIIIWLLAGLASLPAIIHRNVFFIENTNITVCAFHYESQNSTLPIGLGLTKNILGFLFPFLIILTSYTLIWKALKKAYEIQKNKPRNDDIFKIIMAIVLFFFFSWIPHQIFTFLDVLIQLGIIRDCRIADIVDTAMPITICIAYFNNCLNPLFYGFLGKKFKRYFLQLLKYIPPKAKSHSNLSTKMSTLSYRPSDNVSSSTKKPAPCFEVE
Briefly: Radioligand binding assay, 125I-angiotensin II displacement. To be noted: human AT-1 receptors expressed in mouse cell line L h AT-1-D6; 80 pM 125I-angiotensin II; 1 hour at 25° C.; read-out: IC50 (concentration of antagonist needed to displace 50% of the total specifically bound angiotensin II). As to the method: The radioligand binding assay is a modification of a method previously described in detail (Gunther et al., Circ. Res. 47:278, 1980). A stable clone of human AT-1 receptors expressed in the mouse cell line L h AT-1-D6 is used. Cells are incubated in Tris buffer with 80 pM of 125I-angiotensin II with or without angiotensin II antagonists for 1 hour at 25° C. The incubation is terminated by rapid filtration and receptor bound ^125 I-angiotensin II trapped on the filter is quantitated with a gamma counter. The potency of angiotensin II antagonists is expressed as the IC50 which is the concentration of antagonist needed to displace 50% of the total specifically bound angiotensin II.

Experiment [2] relates to pressor response to angiotensin II. Briefly: Inhibition of pressor response to angiotensin II in conscious rats. It counts as in vivo. To be noted: Rattus norvegicus, po, orally, change in mean arterial pressure in response to intravenous angiotensin II, read-out: IC50 (dose of compound needed to produce 50% inhibition of the control response to angiotensin II). Here is the method: Rats are prepared with indwelling femoral arterial and venous catheters and a stomach tube (Gellai et al., Kidney Int. 15:419, 1979). Two to three days following surgery the rats are placed in a restrainer and blood pressure is continuously monitored from the arterial catheter with a pressure transducer and recorded on a polygraph. The change in mean arterial pressure in response to intravenous injections of […] angiotensin II is compared at various time points prior to and following the administration of the compounds intravenously or orally at doses of 0.1 to 300 mg/k g. The dose of compound needed to produce 50% inhibition of the control response to angiotensin II (IC50) is used to estimate the potency of the compounds.

On to `Br.CCCCc1ncc(/C=C(\Cc2cccs2)C(=O)Oc2ccc3c(c2)CCC3)n1Cc1ccc(C(=O)O)c2ccccc12` [Example 1, E-α-[[2-n-butyl-1-[(4-carboxy-1-naphthaleneyl)methyl]-1H-imidazol-5-yl]methylene]-2-thiophenepropanoic Acid Indan-5-yl Ester, Hydrobromide], for which, in experiment [1], the IC50 amounted to 342 nM. In addition, in experiment [2], the ED50 is 0.053 mg/kg.

Source of the values: US5395847A, “Imidazolyl-alkenoic acids” (SmithKline Beecham Corporation, priority 1994, dated 1995).
